In ChEMBL document CHEMBL4184084, “Discovery of Mcl-1 inhibitors based on a thiazolidine-2,4-dione scaffold” (Bioorg Med Chem Lett, 2018):

Legend:
[1] = molecular target: Induced myeloid leukemia cell differentiation protein Mcl-1 (Homo sapiens, UniProt Q07820); test: Inhibition of FITC-labeled Bak-BH3 peptide binding to MCL1 (172 to 371 residues) (unknown origin) by fluorescence polarization competition assay
[2] = molecular target: Bcl-2-like protein 1 (Homo sapiens, UniProt Q07817); test: Inhibition of FITC-labeled Bak-BH3 peptide binding to Bcl-XL (2 to 212 residues) (unknown origin) by fluorescence polarization assay
Bcl-2-like protein 1, sequence (Q07817 whole entry, the tested form may be a part): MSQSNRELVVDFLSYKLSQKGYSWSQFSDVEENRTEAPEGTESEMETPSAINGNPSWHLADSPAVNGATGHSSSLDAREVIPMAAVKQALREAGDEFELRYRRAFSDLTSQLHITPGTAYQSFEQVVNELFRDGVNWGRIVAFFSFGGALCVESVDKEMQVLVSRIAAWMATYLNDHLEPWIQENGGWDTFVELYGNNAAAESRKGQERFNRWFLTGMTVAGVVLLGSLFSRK

Induced myeloid leukemia cell differentiation protein Mcl-1, sequence (Q07820 whole entry, the tested form may be a part): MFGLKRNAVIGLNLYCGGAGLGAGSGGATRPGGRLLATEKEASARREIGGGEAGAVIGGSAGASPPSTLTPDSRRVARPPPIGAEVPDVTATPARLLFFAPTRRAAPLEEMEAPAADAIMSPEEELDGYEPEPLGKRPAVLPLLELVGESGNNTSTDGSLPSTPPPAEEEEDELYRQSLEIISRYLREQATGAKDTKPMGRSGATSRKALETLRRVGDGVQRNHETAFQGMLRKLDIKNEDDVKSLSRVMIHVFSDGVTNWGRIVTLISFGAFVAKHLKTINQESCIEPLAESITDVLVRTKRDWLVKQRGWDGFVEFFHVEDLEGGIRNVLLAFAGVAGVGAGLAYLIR

Ki [1] [nM]	Ki [2] [nM]	SMILES
> 100000	–	Cc1cc(Oc2ccc(/C=C3\SC(=O)NC3=O)cc2)cc(C)c1Cl
290	–	O=C(O)[C@H](Cc1ccccc1)N1C(=O)S/C(=C\c2cccc(Br)c2)C1=O
> 100000	–	CC(C)C[C@@H](C(=O)O)N1C(=O)S/C(=C\c2ccc(O)cc2)C1=O
> 100000	–	Cc1cc(Oc2ccc(/C=C3\SC(=O)N([C@@H](CC(C)C)C(N)=O)C3=O)cc2)cc(C)c1Cl
1940	–	Cc1cc(Oc2ccc(/C=C3\SC(=O)N([C@@H](C)C(=O)O)C3=O)cc2)cc(C)c1Cl
2130	–	CC(C)C[C@@H](C(=O)O)N1C(=O)S/C(=C\c2cccc(Br)c2)C1=O
2220	–	CC(C)C[C@@H](C(=O)O)N1C(=O)S/C(=C\c2ccc(C(C)(C)C)cc2)C1=O
1000	–	Cc1cc(Oc2ccc(/C=C3\SC(=O)N([C@H](CC(C)C)C(=O)O)C3=O)cc2)cc(C)c1Cl
> 100000	–	CC(C)C[C@@H](C(=O)O)N1C(=O)S/C(=C\c2ccccc2)C1=O
10200	–	Cc1cc(Oc2ccc(CC3SC(=O)N(CC(=O)O)C3=O)cc2)cc(C)c1Cl (configuration not stated)
419	–	Cc1cc(Oc2ccc(/C=C3\SC(=O)N([C@@H](CC(C)C)C(=O)O)C3=O)cc2)cc(C)c1Cl
8780	–	CC(C)C[C@@H](C(=O)O)N1C(=O)S/C(=C\c2ccc(Br)cc2)C1=O
2780	–	Cc1cc(Oc2ccc(/C=C3\SC(=O)N([C@H](C)C(=O)O)C3=O)cc2)cc(C)c1Cl
791	–	Cc1cc(Oc2ccc(/C=C3\SC(=O)N([C@@H](CC(C)C)C(=O)O)C3=O)cc2Br)cc(C)c1Cl
1190	–	Cc1cc(Oc2ccc(/C=C3\SC(=O)N([C@H](C(=O)O)C(C)C)C3=O)cc2)cc(C)c1Cl
878	–	Cc1cc(Oc2ccc(/C=C3\SC(=O)N([C@H](Cc4ccccc4)C(=O)O)C3=O)cc2)cc(C)c1Cl
12700	–	CC(C)C[C@@H](C(=O)O)N1C(=O)S/C(=C\c2ccc(Oc3ccccc3)cc2)C1=O
155	90	Cc1cc(Oc2ccc(/C=C3\SC(=O)N([C@@H](Cc4ccccc4)C(=O)O)C3=O)cc2)cc(C)c1Cl
2340	–	Cc1cc(Oc2ccc(/C=C3\SC(=O)N(CC(=O)O)C3=O)cc2)cc(C)c1Cl
> 100000	–	COC(=O)[C@H](CC(C)C)N1C(=O)S/C(=C\c2ccc(Oc3cc(C)c(Cl)c(C)c3)cc2)C1=O
845	–	CC(C)(C)c1ccc(/C=C2\SC(=O)N([C@@H](Cc3ccccc3)C(=O)O)C2=O)cc1
